pIC50: −log10 of the molar value.
Tests used:
Format in all cases: cell-based
ERα [1] = molecular target: T1, ERα (Homo sapiens, UniProt P03372); test: ERα degradation in T-47D cells (Western blot); settings: 4 hours
T1 sequence (P03372 1-595): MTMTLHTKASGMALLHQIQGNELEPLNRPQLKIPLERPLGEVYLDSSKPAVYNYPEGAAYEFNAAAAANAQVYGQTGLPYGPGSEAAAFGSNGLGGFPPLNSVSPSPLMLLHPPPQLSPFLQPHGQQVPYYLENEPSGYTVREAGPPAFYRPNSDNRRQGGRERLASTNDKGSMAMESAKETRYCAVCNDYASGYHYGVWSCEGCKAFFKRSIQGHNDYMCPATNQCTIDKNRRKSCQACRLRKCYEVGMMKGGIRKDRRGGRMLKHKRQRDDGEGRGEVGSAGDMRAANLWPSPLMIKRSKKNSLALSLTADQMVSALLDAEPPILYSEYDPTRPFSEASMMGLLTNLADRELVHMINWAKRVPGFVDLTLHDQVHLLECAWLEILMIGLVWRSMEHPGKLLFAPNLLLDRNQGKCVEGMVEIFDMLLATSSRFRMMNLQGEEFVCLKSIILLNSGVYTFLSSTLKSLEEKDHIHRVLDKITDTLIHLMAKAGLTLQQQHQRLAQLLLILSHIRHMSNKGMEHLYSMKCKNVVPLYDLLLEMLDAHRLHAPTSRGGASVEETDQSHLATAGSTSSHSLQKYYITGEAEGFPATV
Method in brief: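 T-47D cells at 3×10^5 cells/well were exposed to compound (final 0.15-1000 nM, DMSO) for 4 hours at 37°C and then lysed in RIPA. ERα was measured by Western blot (20 µg protein) with infrared imaging. The degradation rate was calculated from ERα/internal-reference grayscale ratios relative to control.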

T-47D cells = test: Inhibition of cell proliferation in T-47D cells (CCK-8); settings: 6 days treatment, CCK-8 cell viability
Method in brief: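 T-47D cells (3,000/well) in RPMI-1640 with 10% FBS were exposed to a concentration range of PROTAC compounds for 6 days at 37 °C, 5% CO2. Viability read by CCK-8; IC50 fitted from inhibition rate.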

ERα [2] = molecular target: T1, ERα; test: ERα degradation in MCF-7 cells (Western blot); design: host or cells: MCF-7; settings: 4 hours
Method in brief: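 MCF-7 cells treated 4 h at 37 °C with compound at 0.15–1000 nM final. ERα in lysates measured by Western blot (20 µg protein), normalized to an internal reference protein; degradation rate calculated against control.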

MCF-7 cells = test: Inhibition of cell proliferation in MCF-7 cells (CCK-8); settings: MCF-7 cell proliferation, 6 days treatment
Method in brief: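 MCF-7 cells, 800 per well in DMEM plus 10% FBS, exposed to graded PROTAC concentrations for 6 days at 37 °C, 5% CO2. Viability by CCK-8; IC50 fitted from inhibition rates.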

Structure (SMILES) | Degradation rate of ERα in T-47D cells (%) (ERα [1]; 1nM) | Degradation rate of ERα in T-47D cells (%) (ERα [1]; 10nM) | pIC50 (T-47D cells; Homo sapiens, T47D, 144 h) | Degradation rate of ERα in MCF-7 cells (%) (ERα [2]; 1nM) | Degradation rate of ERα in MCF-7 cells (%) (ERα [2]; 10nM) | pIC50 (MCF-7 cells; Homo sapiens, MCF7, 144 h) | pIC50 (T-47D cells) | pIC50 (MCF-7 cells)
Cn1c(=O)n(C2CCC(=O)NC2=O)c2ccc3c(c21)OCC31CCN(C2CCN(C(=O)C3CCN(c4ccc([C@@H]5c6ccc(O)cc6CC[C@@H]5c5ccccc5)cc4)CC3)CC2)CC1 (stereo partly drawn) [ER-P-13, 3-(1'-(1-(1-(4-((1R,2S)-6-hydroxy-2-phenyl-1,2,3,4-tetrahydronaphthalen-1-yl)phenyl)piperidine-4-carbonyl)piperidin-4-yl)-1-methyl-2-oxo-1,2-dihydro-3H,7H-spiro[benzofuro[6,7-d]imidazole-6,4'-piperidin]-3-yl)piperidine-2,6-dione] | 79 | 74 | 9.33 | 72 | 85 | 7.72 |  | 
Cn1c(=O)n(C2CCC(=O)NC2=O)c2ccc3c(c21)C1(CCN(C[C@H]2CC[C@@H](OC4CCN(c5ccc([C@@H]6c7ccc(O)cc7CC[C@@H]6c6ccccc6)cc5)CC4)CC2)CC1)CO3 (stereo partly drawn) [ER-P-66, 3-(1'-(((1S,4s)-4-((1-(4-((1R,2S)-6-hydroxy-2-phenyl-1,2,3,4-tetrahydronaphthalen-1-yl)phenyl)piperidin-4-yl)oxy)cyclohexyl)methyl)-1-methyl-2-oxo-1,2-dihydro-3H,7H-spiro[benzofuro[4,5-d]imidazole-8,4'-piperidin]-3-yl)piperidine-2,6-dione] | 18 | 49 | 7.85 | 6 | 30 | 5.39 |  | 
CN(C(=O)CN1CCC2(CC1)CCC1(CC2)COc2c1ccc1c2CN(C2CCC(=O)NC2=O)C1=O)C1CCC2(CC1)CN(c1ccc([C@@H]3c4ccc(O)cc4CC[C@@H]3c3ccccc3)cc1)C2 (stereo partly drawn) [ER-P-20, 2-(7-(2,6-dioxohesperidin-3-yl)-6-oxo-7,8-dihydro-2H,6H-dipyrazole[furo[2,3-e]isoindole-3,1'-cyclohexane-4',4'-piperidin]-1"-yl)-N-(2-(4-((1R,2S)-6-hydroxy-2-phenyl-1,2,3,4-tetrahydronaphthalen-1-yl)phenyl)-2-azaspiro[3.5]nonan-7-yl)-N-methylacetamide] | 38 | 66 | 8.30 | 5 | 30 | 5.65 |  | 
O=C1CCC(N2Cc3c(ccc4c3OCC43CCC4(CC3)CN(C(=O)C3CCN(c5ccc([C@@H]6c7ccc(O)cc7CC[C@@H]6c6ccccc6)cc5)CC3)C4)C2=O)C(=O)N1 (stereo partly drawn) [ER-P-4, 3-(1-(1-(4-(((1R,2S)-6-hydroxy-2-phenyl-1,2,3,4-tetrahydronaphthalen-1-yl)phenyl)piperidine-4-carbonyl)-6'-oxo-6',8'-dihydro-2'H,7'H-diazetidine-3,1'-cyclohexane-4',3"-furo[2,3-e]isoindol]-7'-yl)piperidine-2,6-dione] | 21 | 54 | 8.44 | 9 | 20 | 4.04 |  | 
Cn1c(=O)n(C2CCC(=O)NC2=O)c2cc3c(cc21)C1(CCN(CC2CCN(c4ccc([C@@H]5c6ccc(O)cc6CC[C@@H]5c5ccccc5)cc4)CC2)CC1)CO3 (stereo partly drawn) [ER-P-24, 3-(1'-((1-(4-((1R,2S)-6-hydroxy-2-phenyl-1,2,3,4-tetrahydronaphthalen-1-yl)phenyl)piperidin-4-yl)methyl)-1-methyl-2-oxo-1,2-dihydro-3H,6H-spiro[benzofuro[5,6-d]imidazole-7,4'-piperidin]-3-yl)piperidine-2,6-dione] | -16 | -49 | 7.72 | -68 | -39 | 5.97 |  | 
O=C1CCC(N2Cc3c(ccc4c3OCC43CCC4(CCN(C5CC6(CCN(c7ccc([C@@H]8c9ccc(O)cc9CC[C@@H]8c8ccccc8)cc7)CC6)C5)CC4)CC3)C2=O)C(=O)N1 (stereo partly drawn) [ER-P-3] | 28 | 73 | 8.52 | 25 | 69 | > 9.59 |  | 
Cn1c(=O)n(C2CCC(=O)NC2=O)c2ccc3c(c21)OCC31CCN(CC2CCN(C(=O)C3CCN(c4ccc([C@@H]5c6ccc(O)cc6CC[C@@H]5c5ccccc5)cc4)CC3)CC2)CC1 (stereo partly drawn) [ER-P-63, 3-(1'-((1-(1-(4-((1R,2S)-6-hydroxy-2-phenyl-1,2,3,4-tetrahydronaphthalen-1-yl)phenyl)piperidine-4-carbonyl)piperidin-4-yl)methyl)-1-methyl-2-oxo-1,2-dihydro-3H,7H-spiro[benzofuro[6,7-d]imidazole-6,4'-piperidin]-3-yl)piperidine-2,6-dione] | 56 | 65 | 8.94 | 53 | 56 | 5.43 |  | 
COc1cc2c(cc1C(=O)N[C@H]1CCC(=O)NC1=O)OCC[C@H]1CN(CC3CCC(OC4CCN(c5ccc([C@@H]6c7ccc(O)cc7CC[C@@H]6c6ccccc6)cc5)CC4)CC3)CCN21 (stereo partly drawn) [ER-P-46, (S)-N-((S)-2,6-dioxopiperidin-3-yl)-3-(((1S,4R)-4-((1-(4-((1R,2S)-6-hydroxy-2-phenyl-1,2,3,4-tetrahydronaphthalen-1-yl)phenyl)piperidin-4-yl)oxy)cyclohexyl)methyl)-10-methoxy-2,3,4,4a,5,6-hexahydro-1H-benzo [b]pyrazino[1,2-d][1,4]oxazepine-9-carboxamide] | 35 | 55 |  | 6 | 36 |  | 8.93 | 6.14
C[C@@H]1Cc2cc(O)ccc2C(c2c(F)cc(N3CCC4(CC3)CC(N3CCC5(CC3)CCC3(CC5)COc5c3ccc3c5CN(C5CCC(=O)NC5=O)C3=O)C4)cc2F)N1CC(F)F (stereo partly drawn) [ER-P-27, 3-(1"-(7-(4-((3R)-2-(2,2-difluoroethyl)-6-hydroxy-3-methyl-1,2,3,4-tetrahydroisoquinolin-1-yl)-3,5-difluorophenyl)-7-azaspiro[3.5]nonan-2-yl)-6-oxo-6,8-dihydro-2H,7H-dispiro[furo[2,3-e]isoindole-3,1'-cyclohexane-4',4"-piperidin]-7-yl)piperidine-2,6-dione] | 20 | 53 | 8.87 | 26 | 62 | > 9.59 |  | 
O=C1CCC(Nc2ccc3c(c2)OCC32CCN(C[C@H]3CC[C@@H](OC4CCN(c5ccc([C@@H]6c7ccc(O)cc7CC[C@@H]6c6ccccc6)cc5)CC4)CC3)CC2)C(=O)N1 (stereo partly drawn) [ER-P-31, 3-((1'-(((1S,4s)-4-((1-(4-((1R,2S)-6-hydroxy-2-phenyl-1,2,3,4-tetrahydronaphthalen-1-yl)phenyl)piperidin-4-yl)oxy)cyclohexyl)methyl)-2H-spiro[benzofuran-3,4'-piperidin]-6-yl)amino)piperidine-2,6-dione] | 26 | 79 | 8.57 | 29 | 71 | 7.26 |  | 
Cn1c(=O)n(C2CCC(=O)NC2=O)c2cc3c(cc21)C1(CCN(CC2CCC4(CC2)CN(c2ccc([C@@H]5c6ccc(O)cc6CC[C@@H]5c5ccccc5)cc2)C4)CC1)CO3 (stereo partly drawn) [ER-P-61] | 22 | 43 | 8.95 | 9 | 18 | 7.54 |  | 
Cn1c(=O)n(C2CCC(=O)NC2=O)c2cc3c(cc21)C1(CCN(C2CCC4(CC2)CCN(c2ccc([C@@H]5c6ccc(O)cc6CC[C@@H]5c5ccccc5)cc2)CC4)CC1)CO3 (stereo partly drawn) [ER-P-60] | 21 | 51 | 8.85 | 14 | 36 | 9.44 |  | 
